“And” between values parts separate entries of the source, which are not always exact repeats. Equal entries are not always repeated. Where two headings read alike, the source gives them in different places.
Assays:
rat GPR40 = biological target: T1, rat GPR40 (Rattus norvegicus, UniProt Q8K3T4); assay: Rat GPR40 IP1 accumulation assay; assay type: cell-based
T1 construct: expressed in transfected cells; host or cells: CHO-K1 (methods)
Experimental: (§1) Stable cell lines expressing human GPR40 (hGPR40/HEK293), mouse GPR40 (mGPR40/CHO-K1), and rat GPR40 (rGPR40/CHO-K1) were cultured in DMEM media supplemented with 10% FBS, glutamine, non-essential amino acids, and penicillin/streptomycin. hGPR40/HEK293 & mGPR40/CHO-K1 cell media was supplemented with […] G418 (Life Technologies), while rGPR40/CHO-K1 cells were grown in […] blasticidin plus […] hygromycin (Life Technologies). Cell stocks were maintained and grown in a sub-confluent state using standard cell culture procedures. The day before the experiment, the cells were harvested with non-enzymatic cell dissociation buffer and re-suspended in DMEM supplemented with 10% FBS, glutamine, non-essential amino acids, penicillin/streptomycin at 0.15, 0.2 and 0.3 million cells per ml for human, mouse, and rat GPR40, respectively. […] The seeded plates were incubated overnight at 37 C.
(§2) On the day of the experiment, the growth media was removed from the assay by gently patting the assay plates on an absorbent sheet and 10 μl of IP1 stimulation buffer (Cis Bio IP-one Tb HTRF kit) supplemented with 50 mM LiCl is added to each well. Test compounds dissolved in DMSO were serially diluted in ½ log increments starting from 2 mM or 0.2 mM and 50 nl of the compound dilution was acoustically added to each well (final starting concentration 10 μM or 1 μM). Plates were then incubated for 60 minutes at room temperature and 10 μl of detection buffer (prepared as described in the Tb kit) is added to each well. The plates are then incubated one additional hour at room temperature. […] For each assay, a standard curve plate in which IP1 is titrated is also included. […] The percent activity at each concentration of test compound is determined using 0% activation (basal activity) determined in those wells that contain DMSO alone, while 100% activity is determined in wells that contained a concentration of a partial allosteric agonist know to activate GPR40. The % activity is then plotted versus the concentration of test compound and the dose response curve fitted to a standard 4-parameter non-linear regression model using a custom in-house developed software package (Merck & Co., Inc., MRL, Kenilworth, NJ, USA). Maximal % activity and EC50 are then determined for each test compound.

mouse GPR40 = biological target: T2, mouse GPR40 (Mus musculus, UniProt Q76JU9); assay: Mouse GPR40 IP1 accumulation assay; assay type: cell-based
T2 construct: expressed in transfected cells; host or cells: CHO-K1 (methods)
Experimental: as §1, §2

GK rats [1] = assay: GK rat chronic efficacy (28 days: glucose, food intake, body weight, GLP-1, GIP, PYY, insulin, glucagon); assay type: in vivo; settings: 30 mpk, day 28, fed, individual animals
Experimental: At the start of the study, fed (ambient) blood glucose was measured via glucometer at 1 h post lights on, and animals were selected and sorted into treatment groups based on ambient glucose (n = 10/ GK group, n = 6 WKY control). Blood for baseline incretin measurements was collected in the PM via tail vein. Rats were dosed via oral gavage (PO) at a volume of 5 ml/kg daily at approximately 12:30 PM with either vehicle (0.5% methylcellulose), AP1 at 30 mg/kg, or AP3 at 30 mg/kg. MK-8666, a GPR40 partial agonist synthesized at Merck & Co., Inc., Kenilworth, NJ USA [13], at 30 mg/kg was administered in feed (Research Diets, New Brunswick, NJ) and provided ad lib. All compounds were administered to achieve maximal efficacious exposures determined in acute efficacy studies similar to those acute studies described above. In brief, partial agonists and AgoPAMs were titrated in the acute GK rat experiment described above and the exposure associated with maximal efficacy in glucose lowering was noted. Partial agonists and AgoPAMs were then dosed to maintain those exposures up to 24h post dose. […] Rats from this group and the WKY controls were administered vehicle PO when the vehicle, AP1, and AP3 groups were treated. Fed blood glucose, food intake, and body weights were determined on days 10, 17, 23, and 28 of study at 2 h post lights on. Immediately after these measures were taken on days 10, 17, 23, and 28, food was removed. After 5h of fasting, animals were dosed with vehicle or compound and allowed to rest for an additional hour. Glucose, GLP-1, GIP, and PYY were measured after 6h of fasting at 1 hr post dose. Fed blood glucose is described by animals having had ad libidum access to feed up till the time of sampling and occurred at 2h post-lights on where rats were nearing the end of their nocturnal feeding cycle. Fasted blood glucose is described by blood glucose sampled after 6h of fasting where food was removed at 2h post lights on. Please note that the fasted sample was taken 1h post oral dosing. On day 10, blood was collected from the tail vein (20 μl) after morning glucose measures and after 6 hour fast from a subset of n = 3 rats per treatment group to determine the fed and fasted exposure of the compounds in circulation. The blood was stored at 4°C in 0.1 M sodium citrate for subsequent analysis of drug exposure.
Blood for insulin, glucagon, GLP-1, GIP, and PYY measurements was collected into K2EDTA Microtainer tubes (BD, Franklin Lakes, NJ) pre-treated with DPP4 inhibitor (Millipore, Billerica, MA) and cOmplete™ Protease Inhibitor Cocktail Tablets (Roche Diagnostics, Indianapolis, IN). Tubes were centrifuged for 10 minutes at 5000 RPM, and plasma was aliquotted for analysis. Plasma insulin levels were measured via EIA (Mesoscale Discovery ELISA Kit, Gaithersburg MD). Rat plasma total GLP-1 was measured using Total GLP-1 (ver.2) Assay Kit (Cat#: K150JVC). The measurement of active GLP-1 was carried out in a similar manner as that described for total GLP-1 assay with the exception that MSD Active GLP-1 (ver. 2) assay kit (Cat# K150JWC) was used. Rat plasma glucagon was measured using an in-house glucagon assay developed as a MSD format sandwich immunoassay (Merck & Co., Inc., MRL, Kenilworth, NJ USA). The antibody specificity was cross validated via mass- spec using procedures described in Lee et al. Briefly, MSD Streptavidin Gold plates were coated with 2 μg/ml biotin mouse monoclonal antibody generated to glucagon. Test samples were added to the plates and a separate Sulfo- tagged monoclonal antibody was used to detect the captured glucagon protein (2 μg/ml). The ELISA was carried out in the standard reagents in the MSD format. The plate was read on the SECTOR Imager 6000 Reader. Metabolic hormones GIP (Gastric Inhibitory Polypeptide) and PYY (Peptide YY) were measured in rat plasma using the Rat Metabolic Magnetic Bead Panel (EMD Millipore, Billerica, MA). The assay was performed according to manufacturer protocol. […]

GK rats [2] = assay: GK rat acute efficacy (glucose, insulin, glucagon after single dose); assay type: in vivo; settings: 100 mpk
Experimental: Ambient blood glucose was measured via tail snip with a glucometer (OneTouch Ultra, Lifescan Inc., Milpitas, CA). Body weights were then measured, and food was removed approximately 1 hr post lights on. Animals were sorted into treatment groups based on ambient glucose. At approximately 10 AM, glucose was measured and blood for insulin, glucagon, and drug exposure was collected. […] Each compound tested was dosed at its maximal effective dose determined through a series of dose titrations using this experimental paradigm (data not shown). Effects of treatment on glucose, insulin, and glucagon were measured at 1, 2, 4, and 24 hrs post dose. After the 4 hr blood collection, food was returned overnight and removed the next day at 1 hr post lights on.
Blood for insulin, glucagon, GLP-1, GIP, and PYY measurements was collected into K2EDTA Microtainer tubes (BD, Franklin Lakes, NJ) pre-treated with DPP4 inhibitor (Millipore, Billerica, MA) and cOmplete™ Protease Inhibitor Cocktail Tablets (Roche Diagnostics, Indianapolis, IN). Tubes were centrifuged for 10 minutes at 5000 RPM, and plasma was aliquotted for analysis. Plasma insulin levels were measured via EIA (Mesoscale Discovery ELISA Kit, Gaithersburg MD). Rat plasma total GLP-1 was measured using Total GLP-1 (ver.2) Assay Kit (Cat#: K150JVC). The measurement of active GLP-1 was carried out in a similar manner as that described for total GLP-1 assay with the exception that MSD Active GLP-1 (ver. 2) assay kit (Cat# K150JWC) was used. Rat plasma glucagon was measured using an in-house glucagon assay developed as a MSD format sandwich immunoassay (Merck & Co., Inc., MRL, Kenilworth, NJ USA). The antibody specificity was cross validated via mass- spec using procedures described in Lee et al. Briefly, MSD Streptavidin Gold plates were coated with 2 μg/ml biotin mouse monoclonal antibody generated to glucagon. Test samples were added to the plates and a separate Sulfo- tagged monoclonal antibody was used to detect the captured glucagon protein (2 μg/ml). The ELISA was carried out in the standard reagents in the MSD format. The plate was read on the SECTOR Imager 6000 Reader. Metabolic hormones GIP (Gastric Inhibitory Polypeptide) and PYY (Peptide YY) were measured in rat plasma using the Rat Metabolic Magnetic Bead Panel (EMD Millipore, Billerica, MA). The assay was performed according to manufacturer protocol.

T1 sequence (Q8K3T4 whole entry): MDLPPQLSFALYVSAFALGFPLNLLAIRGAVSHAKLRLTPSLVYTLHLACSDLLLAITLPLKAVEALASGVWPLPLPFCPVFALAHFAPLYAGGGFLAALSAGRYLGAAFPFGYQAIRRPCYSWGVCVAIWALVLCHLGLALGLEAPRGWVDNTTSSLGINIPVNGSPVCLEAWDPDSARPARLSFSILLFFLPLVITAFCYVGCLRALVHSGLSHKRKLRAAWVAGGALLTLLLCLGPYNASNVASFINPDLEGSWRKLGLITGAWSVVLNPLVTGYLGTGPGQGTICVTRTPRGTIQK
T2 sequence (Q76JU9 whole entry): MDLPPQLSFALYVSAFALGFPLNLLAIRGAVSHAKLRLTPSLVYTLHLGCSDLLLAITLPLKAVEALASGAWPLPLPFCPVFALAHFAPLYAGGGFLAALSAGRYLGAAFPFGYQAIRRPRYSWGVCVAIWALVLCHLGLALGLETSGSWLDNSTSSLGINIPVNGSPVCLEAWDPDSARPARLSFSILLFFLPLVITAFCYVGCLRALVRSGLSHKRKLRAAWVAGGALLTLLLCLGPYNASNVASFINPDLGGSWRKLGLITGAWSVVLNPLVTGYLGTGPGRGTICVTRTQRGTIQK

Q: How did the EC50 (rat GPR40; EC50 (nM), Rat GPR40, Functional Assay, individual determinations) turn out when `CC#C[C@@H](CC(=O)O)c1ccc(OCc2cccc(-c3ccc(C(F)(F)F)cc3)c2)cc1` [AMG-837, reference compound] was run?
A: 1.9 nM and 1.6 nM and 1.2 nM and 0.9 nM and 1.8 nM and 1.1 nM

Q: And the EC50 (rat GPR40; individual determinations, read-out: EC50 (nM), Rat GPR40, Functional Assay)?
A: 1.3 nM and 2.2 nM

Q: What about the EC50 (rat GPR40; mean ± SD, n = 2–20, IP accumulation, read-out: Potency [EC50, nM] ± SD, Rat) of the same compound?
A: 1.5 ± 0.41 nM

Q: What about the EC50 (mouse GPR40; EC50 (nM), Mouse GPR40, Functional Assay, individual determinations) of the same compound?
A: 2.6 nM and 3.6 nM and 1.7 nM and 1.1 nM and 1.8 nM

Q: And the EC50 (mouse GPR40; Potency [EC50, nM] ± SD, Mouse, mean ± SD, n = 2–20, IP accumulation)?
A: 1.9 ± 0.76 nM

Q: What about the EC50 (mouse GPR40; individual determinations, read-out: EC50 (nM), Mouse GPR40, Functional Assay) of the same compound?
A: 2 nM

Q: How did the “Fed glucose on day 28 (Fig 3B)” value (GK rats [1]) turn out when `C[C@H](C(=O)O)[C@H](c1ccc2c(c1)O[C@H](C1CN(Cc3cc(C(F)(F)F)ccc3C(F)(F)F)C1)CC2)C1CC1` [P3] was run?
A: 141 and 132 and 113 and 119 and 112 and 106 and 116 and 101

Q: What does the source list for `Cc1cc(OCCCS(C)(=O)=O)cc(C)c1-c1cccc(COc2ccc3c(c2)OC[C@H]3CC(=O)O)c1` [TAK]?
A: Plasma Glucagon Over Time (Fig 2C) (GK rats [2]; time 0, individual animals): 75.2366 pg/mL and 59.5419 pg/mL and 46.7473 pg/mL and 119.065 pg/mL and 82.5246 pg/mL and 83.5453 pg/mL and 74.4881 pg/mL and 90.3444 pg/mL; Plasma Insulin Over Time (Fig 2B) (GK rats [2]; time 0, individual animals): 2.655 ng/mL and 1.525 ng/mL and 2.703 ng/mL and 2.889 ng/mL and 1.936 ng/mL and 1.972 ng/mL and 2.503 ng/mL and 2.551 ng/mL; Plasma Glucagon Over Time (Fig 2C) (GK rats [2]; time 1, individual animals): 168.277 pg/mL and 120.989 pg/mL and 104.57 pg/mL and 184.364 pg/mL and 130.682 pg/mL and 112.051 pg/mL and 81.0192 pg/mL and 132.45 pg/mL; Plasma Insulin Over Time (Fig 2B) (GK rats [2]; time 1, individual animals): 3.3854 ng/mL and 2.854 ng/mL and 4.397 ng/mL and 4.229 ng/mL and 2.551 ng/mL and 2.055 ng/mL and 2.175 ng/mL and 2.74 ng/mL; Plasma Glucagon Over Time (Fig 2C) (GK rats [2]; time 2, individual animals): 165.323 pg/mL and 244.359 pg/mL and 138.27 pg/mL and 211.843 pg/mL and 72.9369 pg/mL and 186.55 pg/mL and 94.6201 pg/mL and 160.38 pg/mL; Plasma Insulin Over Time (Fig 2B) (GK rats [2]; time 2, individual animals): 2.858 ng/mL and 2.437 ng/mL and 3.152 ng/mL and 3.268 ng/mL and 1.276 ng/mL and 1.644 ng/mL and 1.778 ng/mL and 2.202 ng/mL; Plasma Glucagon Over Time (Fig 2C) (GK rats [2]; time 4, individual animals): 85.2047 pg/mL and 62.7395 pg/mL and 105.981 pg/mL and 18.1244 pg/mL and 124.809 pg/mL and 199.712 pg/mL and 103.043 pg/mL and 175.312 pg/mL; Plasma Insulin Over Time (Fig 2B) (GK rats [2]; time 4, individual animals): 1.494 ng/mL and 1.787 ng/mL and 2.636 ng/mL and 1.66 ng/mL and 1.848 ng/mL and 1.214 ng/mL and 2.191 ng/mL and 1.8763 ng/mL; Plasma Glucagon Over Time (Fig 2C) (GK rats [2]; time 24, individual animals): 86.4436 pg/mL and 115.249 pg/mL and 67.5931 pg/mL and 36.8268 pg/mL and 81.8289 pg/mL and 118.991 pg/mL and 35.1523 pg/mL and 94.7909 pg/mL; Plasma Insulin Over Time (Fig 2B) (GK rats [2]; time 24, individual animals): 1.093 ng/mL and 1.2004 ng/mL and 2.002 ng/mL and 0.9338 ng/mL and 1.238 ng/mL and 1.808 ng/mL and 1.437 ng/mL and 1.841 ng/mL
